Results from BindingDB's records for patent US11046658 (Incyte, 2021).

Columns and labels:
[1] = target: T1, Phosphatidylinositol 4,5-bisphosphate 3-kinase catalytic subunit delta isoform (Homo sapiens, UniProt O00329); test: PI3Kdelta Scintillation Proximity Assay
T1 sequence (O00329 whole entry): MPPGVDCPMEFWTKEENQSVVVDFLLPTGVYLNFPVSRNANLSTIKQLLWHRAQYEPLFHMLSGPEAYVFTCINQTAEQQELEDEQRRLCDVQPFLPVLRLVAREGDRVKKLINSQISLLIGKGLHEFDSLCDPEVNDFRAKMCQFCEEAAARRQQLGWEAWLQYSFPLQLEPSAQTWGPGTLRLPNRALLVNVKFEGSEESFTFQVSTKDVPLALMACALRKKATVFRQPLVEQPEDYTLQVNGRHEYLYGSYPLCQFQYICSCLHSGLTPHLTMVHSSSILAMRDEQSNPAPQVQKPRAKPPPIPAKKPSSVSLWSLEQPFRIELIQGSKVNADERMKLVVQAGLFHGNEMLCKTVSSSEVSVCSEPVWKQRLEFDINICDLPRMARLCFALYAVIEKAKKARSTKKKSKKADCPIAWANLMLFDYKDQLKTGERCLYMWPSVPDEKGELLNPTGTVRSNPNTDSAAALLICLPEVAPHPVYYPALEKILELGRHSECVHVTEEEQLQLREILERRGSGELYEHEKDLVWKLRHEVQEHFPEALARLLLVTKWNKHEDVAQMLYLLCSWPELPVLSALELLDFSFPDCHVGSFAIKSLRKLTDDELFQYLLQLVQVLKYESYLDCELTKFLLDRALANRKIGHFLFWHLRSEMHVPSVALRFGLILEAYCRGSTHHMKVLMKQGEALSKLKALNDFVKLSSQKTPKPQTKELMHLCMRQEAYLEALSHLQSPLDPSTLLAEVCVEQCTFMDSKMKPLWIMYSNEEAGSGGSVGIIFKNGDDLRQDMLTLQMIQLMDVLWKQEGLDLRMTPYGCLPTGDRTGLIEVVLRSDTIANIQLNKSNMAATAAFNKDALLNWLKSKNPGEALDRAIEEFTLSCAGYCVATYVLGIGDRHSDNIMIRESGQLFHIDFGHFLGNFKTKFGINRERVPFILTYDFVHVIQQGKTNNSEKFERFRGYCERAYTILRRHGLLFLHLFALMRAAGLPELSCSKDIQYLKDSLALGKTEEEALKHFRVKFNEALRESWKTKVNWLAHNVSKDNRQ
From the text: (§1) Materials: [γ-33P]ATP (10 mCi/mL) and Wheat Germ Agglutinin (WGA) YSi SPA Scintillation Beads was purchased from Perkin Elmer (Waltham, Mass.). Lipid kinase substrate, D-myo-Phosphatidylinositol 4,5-bisphosphate (PtdIns(4,5)P2)D (+)-sn-1,2-di-O-octanoylglyceryl, 3-O-phospho linked (PIP2), CAS 204858-53-7, was purchased from Echelon Biosciences (Salt Lake City, Utah). PI3Kδ (p110δ/p85α) Recombinant Human Protein was purchased from Eurofins (St Charles, Mo.). ATP, MgCl2, DTT, EDTA, MOPS and CHAPS were purchased from Sigma Aldrich (St. Louis, Mo.).The kinase reaction was conducted in polystyrene 384-well Greiner Bio-one white plate from Thermo Fisher Scientific in a final volume of 25 μL. Inhibitors were first diluted serially in DMSO and added to the plate wells before the addition of other reaction components. The final concentration of DMSO in the assay was 2%. The PI3Kδ assay was carried out at room temperature in 20 mM MOPS, pH 6.7, 10 mM MgCl2, 5 mM DTT and CHAPS 0.03%. Reactions were initiated by the addition of ATP, the final reaction mixture consisted of 20 μM PIP2, 2 μM ATP, 0.5 μCi [γ-33P] ATP, 3.4 nM PI3Kδ. […] After the plate sealing, plates were shaken overnight at room temperature and centrifuged at 1500 rpm for 10 min, the radioactivity of the product was determined by scintillation counting on Topcount (PerkinElmer). […]

[2] = target: Phosphatidylinositol 4,5-bisphosphate 3-kinase catalytic subunit gamma isoform (Homo sapiens, UniProt P48736); test: PI3K-gamma Scintillation Proximity Assay
From the text: as §1, with “PI3Kγ (p110γ)” for “PI3Kδ (p110δ/p85α)”, “Life technology (Grand Island, N.Y.).” for “Eurofins (St Charles, Mo.).”, “PI3Kγ” for “PI3Kδ”, “13” for “3.4”, “PI3Kγ.” for “PI3Kδ.”, “(Perkin-Elmer).” for “(PerkinElmer).”

Phosphatidylinositol 4,5-bisphosphate 3-kinase catalytic subunit gamma isoform, sequence (P48736 whole entry, canonical isoform): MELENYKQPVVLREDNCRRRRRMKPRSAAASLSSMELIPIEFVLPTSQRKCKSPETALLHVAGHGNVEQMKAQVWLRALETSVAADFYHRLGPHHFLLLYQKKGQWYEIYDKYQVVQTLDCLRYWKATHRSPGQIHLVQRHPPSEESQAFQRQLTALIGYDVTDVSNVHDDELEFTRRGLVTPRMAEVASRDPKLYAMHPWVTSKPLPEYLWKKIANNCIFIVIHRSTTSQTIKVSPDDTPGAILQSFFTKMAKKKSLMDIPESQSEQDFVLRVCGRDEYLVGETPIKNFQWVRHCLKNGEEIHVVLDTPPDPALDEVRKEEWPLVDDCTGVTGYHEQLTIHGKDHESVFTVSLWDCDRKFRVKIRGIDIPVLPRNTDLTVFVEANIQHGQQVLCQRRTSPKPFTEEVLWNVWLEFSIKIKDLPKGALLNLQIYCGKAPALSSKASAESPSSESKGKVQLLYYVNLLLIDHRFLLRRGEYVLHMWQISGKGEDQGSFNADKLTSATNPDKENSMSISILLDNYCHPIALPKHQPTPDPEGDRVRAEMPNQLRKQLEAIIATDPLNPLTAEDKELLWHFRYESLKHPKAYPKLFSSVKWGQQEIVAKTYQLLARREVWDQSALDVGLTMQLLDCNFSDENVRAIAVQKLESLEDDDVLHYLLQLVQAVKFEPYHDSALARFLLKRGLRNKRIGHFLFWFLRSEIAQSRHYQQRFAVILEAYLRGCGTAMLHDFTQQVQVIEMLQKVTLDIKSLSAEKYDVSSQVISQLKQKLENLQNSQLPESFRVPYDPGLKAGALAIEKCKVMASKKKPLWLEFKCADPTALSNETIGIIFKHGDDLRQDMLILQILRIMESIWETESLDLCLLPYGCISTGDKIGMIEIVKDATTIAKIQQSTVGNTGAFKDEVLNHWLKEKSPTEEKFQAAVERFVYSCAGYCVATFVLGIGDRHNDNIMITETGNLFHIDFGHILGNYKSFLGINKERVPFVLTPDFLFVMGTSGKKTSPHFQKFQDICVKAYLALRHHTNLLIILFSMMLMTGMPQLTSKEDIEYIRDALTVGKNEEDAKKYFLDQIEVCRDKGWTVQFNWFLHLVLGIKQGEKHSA

IC50 [1]: < 100 nM
IC50 [2]: < 100 nM
SMILES: C#Cc1ccccc1N1CCN(c2nc(-c3cc(C(O)(C(N)=O)C(F)(F)F)ccc3C)cnc2N)CC1 (configuration not stated) [US11046658, Example 122]
